Tests used:
SNU-16 cells = test: Cell proliferation (Cell Titer-Blue Assay); type: cell-based; conditions: Homo sapiens
From the text: Human chronic myelogenous leukemia K562 cells (ATCC No. CCL-243), human large B-lymphocyte non-Hodgkin's lymphoma LCL cells, human leukemic monocyte lymphoma U937 cells (ATCC No. CRL-1593.2), human prostate adenocarcinoma PC3 (ATCC No. CRL-1435) and human gastric carcinoma SNU-16 cells (ATCC No. CRL-5974) were maintained in complete-[…] Park Memorial Institute (RPMI) 1640 medium supplemented with 20 mmol/L HEPES (pH 7.4; GIBCO-Invitrogen, Carlsbad, Calif., USA), 10% (v/v) fetal bovine serum (FBS), 2 mmol/L L-glutamine (GIBCO-Invitrogen), and 80 units gentamicin (GIBCO-Invitrogen). Cells were cultured in suspension in a humidified atmosphere of 5% (v/v) CO2 at 37° C. and were maintained in exponential growth phase. For maintenance, cells were passaged twice per week and seeded at ratios 1:10. Cell proliferation was determined using the Cell Titer-Blue Assay kit (Promega, Madison, Wis., USA). Cells were seeded at 10,000 cells per well in black flat bottom 96-well plates (Nalge Nunc, Penfield, N.Y., USA) and treated with serial doses of hydroxytyrosol (0-3200 μM) and oleuropein (0-12800 μM) for 24, 48 and 120 hours at 37° C., 5% (v/v) CO2. Following incubation with the test samples, Cell-Titer Blue reagent (20 μl per 100 μL) was added to each well and mixed gently for 5 sec prior to 4 hr incubation at 37° C. in a humidified atmosphere of 5% CO2. Fluorescence intensity (λex=550 nm and λem=615 nm) was determined using a Perkin Elmer Victor3 multilabel microplate counter (PerkinElmer, Waltham, Mass., USA). Data were expressed as % relative cell viability compared to untreated cells after correction of subtracting the media control fluorescence reading.

A549 cells = test: Cell proliferation (Cell Titer-Blue Assay); type: cell-based, human; conditions: for EC50: Homo sapiens
Protocol: (§1) Human epidermal squamous carcinoma A431 cells (ATCC No. CRL-1555), human breast adenocarcinoma MCF7 cells (ATCC No. HTB-22) and brain glioblastoma T98G cells (ATCC No. CRL-1690) obtained from the ATCC were grown as monolayers in a Modified Eagle's Medium (a-MEM) supplemented with 2 mmol/L HEPES (pH 7.4; GIBCO-Invitrogen), 10% (v/v) FBS, 2 mmol/L L-glutamine (GIBCO-Invitrogen), and 80 units gentamicin (GIBCO-Invitrogen). Human epithelial lung adenocarcinoma A549 cells (ATCC No. CCL-185), human liver hepatocellular carcinoma and human colorectal carcinoma HT-29 cells (ATCC No. HTB-38) were obtained from the American Type Culture Collection and grown as monolayers in DMEM (Gibco, Invitrogen) supplemented with 10% (v/v) FBS (In Vitro Technologies), antibody/antimycotic containing 100 U/mL Penicillin, 100 μg/mL Streptomycin, 0.25 μg/mL Amphotericin B (Invitrogen, Carlsbad). All adherent cells were maintained in the exponential growth phase in T75 cm^2 vented culture flasks and passaged by 0.05% (v/v) trypsin-EDTA (GIBCO, Invitrogen) before seeding; at 37° C., 5% (v/v) CO2. Cell proliferation was determined using the Cell Titer-Blue Assay kit (Promega, Madison, Wis., USA). Cells were seeded at 10,000 cells per well in black flat bottom 96-well plates (Nalge Nunc, Penfield, N.Y., USA) and treated with serial doses of hydroxytyrosol (0-3200 μM) and oleuropein (0-12800 μM) for 24, 48 and 120 hours at 37° C., 5% (v/v) CO2. Following incubation with the test samples, Cell-Titer Blue reagent (20 μl per 100 μL) was added to each well and mixed gently for 5 sec prior to 4 hr incubation at 37° C. in a humidified atmosphere of 5% CO2. Fluorescence intensity (λex=550 nm and λem=615 nm) was determined using a Perkin Elmer Victor3 multilabel microplate counter (PerkinElmer, Waltham, Mass., USA). Data were expressed as % relative cell viability compared to untreated cells after correction of subtracting the media control fluorescence reading.

T98G cells = test: Cell proliferation (Cell Titer-Blue Assay); type: cell-based, human; conditions: for EC50: Homo sapiens
Protocol: as §1

human keratinocytes = test: γH2AX immunofluorescence, keratinocytes after γ-radiation; type: cell-based; conditions: pre-treatment 24 hours
Protocol: Keratinocytes pre-treated with Formulations 1, 2 and 3 (Table 9) for 24 hours prior to exposure to 0, 2 and 12 Gy (137Cs) and incubated for a further hour; 37° C., 5% (v/v) CO2, before staining for γH2AX as previously described.

PBMC = test: Western blotting of histone methylation, PBMC; type: cell-based, human; conditions: 100 μM, 24 hours
[1] = Cell viability (Cell-Titer Blue), PBMC; type: cell-based; conditions: human, PBMC (peripheral blood mononuclear cells), hydroxytyrosol 20 or 100 μM
Protocol: Cells were seeded at densities of 7,500 cells/in black flat bottom 96-well plates (Nalge Nunc, Penfield, N.Y., USA) and treated with a dose response of hydroxytyrosol (0-200 μM), oleuropein (0-800 μM), tyrosol (0-1000 μM) and homovanilic acid (0-1000 μM) for 24 hours at 37° C., 5% (v/v) CO2. Cell viability was determined after 24 hour exposure to hydroxytyrosol and measured using the Cell-Titer Blue® Assay kit (Promega, Madison, Wis., USA) according to the manufacturer's instructions. Cell-Titer Blue reagent was added to each well and incubated for 4 hours at 37° C., 5% CO2, before reading fluorescence intensity (550 nm excitation; 615 nm emission) using the Perkin Elmer Victor3 (Perkin Elmer, MA, USA) multi-label plate reader.

K562 cells [2] = test: Total Antioxidant Capacity Assay, K562; type: cell-based, human; conditions: 50 μM hydroxytyrosol or Formulation 2 (4× diluted), 24 hours
K562 cells [3] = test: Apo-ONE Homogeneous Caspase 3/7 assay, K562; type: cell-based, human
Protocol: Apoptosis was determined by cell lysis prior to measuring caspase-3/7 enzymatic activity with Apo-ONE Homogeneous Caspase-3/7 Assay kit (Promega, Wis., USA), according to the manufacturer's instructions. Following determination of growth inhibition as described above, Apo-1 substrate/buffer mix was added to each well at a ratio of 1:1 and incubated for 4 hours on a rotating platform in the dark at 22° C. The fluorescence intensity (λex=485 nm and λem=525 nm) was determined on a Victor3 multilabel plate counter (PerkinElmer, Waltham, Mass., USA). Apoptosis was reported as the change in fluorescence over 4 hours and after subtraction of the media control.

Question: Which results are given for C/C=C1/[C@H](O[C@@H]2O[C@H](CO)[C@@H](O)[C@H](O)[C@H]2O)OC=C(C(=O)OC)[C@H]1CC(=O)OCCc1ccc(O)c(O)c1 [OL, oleuropein]?
Answer: EC50 (SNU-16 cells; SNU-16, 24 hr): 2820 µM; EC50 (SNU-16 cells; SNU-16, 48 hr): 800 µM; EC10 (concentration required to reduce the cell viability of the population to 10%) (A549 cells; A549, 120 hr): 1540 µM; EC50 (A549 cells; A549, 24 hr): 1080 µM; EC50 (A549 cells; A549, 48 hr): 1100 µM; EC50 (A549 cells; A549, 120 hr): 1220 µM; EC10 (concentration required to reduce the cell viability of the population to 10%) (T98G cells; 120 hr): 6220 µM; EC50 (T98G cells; 24 hr): 2770 µM; EC50 (T98G cells; 48 hr): 6100 µM; EC50 (T98G cells; 120 hr): 5500 µM

Question: What does the source list for OCCc1ccc(O)c(O)c1 [HT, 4-(2-hydroxyethyl)-1,2-benzenediol]?
Answer: radiation-induced DNA damage (human keratinocytes): protects; histone H3 lysine 9 (H3K9) di-methylation (PBMC): decreased; viability at 24 h [1]: 100%; EC50 (SNU-16 cells; SNU-16, 24 hr): 1100 µM; EC50 (SNU-16 cells; SNU-16, 48 hr): 80 µM; total antioxidant capacity (K562 cells [2]): deplete total antioxidant capacity; EC10 (concentration required to reduce the cell viability of the population to 10%) (A549 cells; A549, 120 hr): 320 µM; EC50 (A549 cells; A549, 24 hr): 417 µM; EC50 (A549 cells; A549, 48 hr): 220 µM; EC50 (A549 cells; A549, 120 hr): 160 µM; EC10 (concentration required to reduce the cell viability of the population to 10%) (T98G cells; 120 hr): 1120 µM; EC50 (T98G cells; 24 hr): 1340 µM; EC50 (T98G cells; 48 hr): 1750 µM; EC50 (T98G cells; 120 hr): 700 µM; caspase 3/7 apoptotic activity (K562 cells [3]; K562, hydroxytyrosol 24 hours): significant dose dependent increase; caspase 3/7 mediated apoptosis (K562 cells [3]; K562, hydroxytyrosol or Formulation 2 (4× diluted), FIG. 25): significantly induce caspase 3/7 mediated apoptosis
